How the values were obtained:
Format in all cases: cell-based
[1] = tested on: Salmonella typhimurium TA100; experiment: Ames test (reverse mutation test), TA100
Description: (§1) The solvent used herein was dimethyl sulfoxide (DMSO, 100 µL/plate).
(§2) The mixtures were preincubated at 37° C. for 20 minutes while shaking. […] Two plates per treatment were used.

Escherichia coli WP2uvrA = experiment: Ames test (reverse mutation test), WP2uvrA
Description: as §1, §2

[2] = tested on: Salmonella typhimurium TA98; experiment: Ames test (reverse mutation test), TA98
Description: as §1, §2

[3] = tested on: Salmonella typhimurium TA1535; experiment: Ames test (reverse mutation test), TA1535
Description: as §1, §2

[4] = tested on: Salmonella typhimurium TA1537; experiment: Ames test (reverse mutation test), TA1537
Description: as §1, §2

Nc1cc(-c2cccc(OCC(F)(F)F)c2)n(-c2ccc(F)cc2)n1 [Metabolite E]
Number of revertant colonies TA100 ([1]; S9 Mix +, dose 2.3 µg/plate): 1338 | Number of revertant colonies TA100 ([1]; S9 Mix +, dose 6.9 µg/plate): 2032 | Number of revertant colonies TA100 ([1]; S9 Mix +, dose 21 µg/plate): 2016 | Number of revertant colonies TA100 ([1]; S9 Mix +, dose 62 µg/plate): 2320 | Number of revertant colonies TA100 ([1]; S9 Mix +, dose 185 µg/plate): 1799 | Number of revertant colonies TA100 ([1]; S9 Mix +, dose 556 µg/plate): 1082 | Number of revertant colonies TA100 ([1]; S9 Mix +, dose 1667 µg/plate): 182 | Number of revertant colonies TA100 ([1]; S9 Mix +, dose 5000 µg/plate): 157 | Number of revertant colonies TA100 ([1]; S9 Mix -, dose 2.3 µg/plate): 110 | Number of revertant colonies TA100 ([1]; S9 Mix -, dose 6.9 µg/plate): 96 | Number of revertant colonies TA100 ([1]; S9 Mix -, dose 21 µg/plate): 96 | Number of revertant colonies TA100 ([1]; S9 Mix -, dose 62 µg/plate): 101 | Number of revertant colonies TA100 ([1]; S9 Mix -, dose 185 µg/plate): 75 | Number of revertant colonies TA100 ([1]; S9 Mix -, dose 556 µg/plate): 38 | Number of revertant colonies TA100 ([1]; S9 Mix -, dose 1667 µg/plate): 27 | Number of revertant colonies TA100 ([1]; S9 Mix -, dose 5000 µg/plate): 0 | potential to induce reverse mutations ([1]; TA100 with S9 mix): showed potential to induce reverse mutations | Number of revertant colonies WP2uvrA (Escherichia coli WP2uvrA; S9 Mix +, dose 2.3 µg/plate): 26 | Number of revertant colonies WP2uvrA (Escherichia coli WP2uvrA; S9 Mix +, dose 6.9 µg/plate): 32 | Number of revertant colonies WP2uvrA (Escherichia coli WP2uvrA; S9 Mix +, dose 21 µg/plate): 24 | Number of revertant colonies WP2uvrA (Escherichia coli WP2uvrA; S9 Mix +, dose 62 µg/plate): 30 | Number of revertant colonies WP2uvrA (Escherichia coli WP2uvrA; S9 Mix +, dose 185 µg/plate): 18 | Number of revertant colonies WP2uvrA (Escherichia coli WP2uvrA; S9 Mix +, dose 556 µg/plate): 19 | Number of revertant colonies WP2uvrA (Escherichia coli WP2uvrA; S9 Mix +, dose 1667 µg/plate): 13 | Number of revertant colonies WP2uvrA (Escherichia coli WP2uvrA; S9 Mix +, dose 5000 µg/plate): 12 | Number of revertant colonies WP2uvrA (Escherichia coli WP2uvrA; S9 Mix -, dose 2.3 µg/plate): 20 | Number of revertant colonies WP2uvrA (Escherichia coli WP2uvrA; S9 Mix -, dose 6.9 µg/plate): 26 | Number of revertant colonies WP2uvrA (Escherichia coli WP2uvrA; S9 Mix -, dose 21 µg/plate): 24 | Number of revertant colonies WP2uvrA (Escherichia coli WP2uvrA; S9 Mix -, dose 62 µg/plate): 27 | Number of revertant colonies WP2uvrA (Escherichia coli WP2uvrA; S9 Mix -, dose 185 µg/plate): 22 | Number of revertant colonies WP2uvrA (Escherichia coli WP2uvrA; S9 Mix -, dose 556 µg/plate): 10 | Number of revertant colonies WP2uvrA (Escherichia coli WP2uvrA; S9 Mix -, dose 1667 µg/plate): 15 | Number of revertant colonies WP2uvrA (Escherichia coli WP2uvrA; S9 Mix -, dose 5000 µg/plate): 7 | Number of revertant colonies TA98 ([2]; S9 Mix +, dose 2.3 µg/plate): 589 | Number of revertant colonies TA98 ([2]; S9 Mix +, dose 6.9 µg/plate): 1310 | Number of revertant colonies TA98 ([2]; S9 Mix +, dose 21 µg/plate): 1001 | Number of revertant colonies TA98 ([2]; S9 Mix +, dose 62 µg/plate): 490 | Number of revertant colonies TA98 ([2]; S9 Mix +, dose 185 µg/plate): 268 | Number of revertant colonies TA98 ([2]; S9 Mix +, dose 556 µg/plate): 77 | Number of revertant colonies TA98 ([2]; S9 Mix +, dose 1667 µg/plate): 15 | Number of revertant colonies TA98 ([2]; S9 Mix +, dose 5000 µg/plate): 12 | Number of revertant colonies TA98 ([2]; S9 Mix -, dose 2.3 µg/plate): 26 | Number of revertant colonies TA98 ([2]; S9 Mix -, dose 6.9 µg/plate): 27 | Number of revertant colonies TA98 ([2]; S9 Mix -, dose 21 µg/plate): 28 | Number of revertant colonies TA98 ([2]; S9 Mix -, dose 62 µg/plate): 32 | Number of revertant colonies TA98 ([2]; S9 Mix -, dose 185 µg/plate): 17 | Number of revertant colonies TA98 ([2]; S9 Mix -, dose 556 µg/plate): 12 | Number of revertant colonies TA98 ([2]; S9 Mix -, dose 1667 µg/plate): 6 | Number of revertant colonies TA98 ([2]; S9 Mix -, dose 5000 µg/plate): 2 | potential to induce reverse mutations ([2]; TA98 with S9 mix): showed potential to induce reverse mutations | Number of revertant colonies TA1535 ([3]; S9 Mix +, dose 1667 µg/plate): 0 | Number of revertant colonies TA1535 ([3]; S9 Mix -, dose 556 µg/plate): 0 | Number of revertant colonies TA1535 ([3]; S9 Mix -, dose 1667 µg/plate): 0 | potential to induce reverse mutations ([3]; TA1535 with S9 mix): showed potential to induce reverse mutations | Number of revertant colonies TA1537 ([4]; S9 Mix +, dose 2.3 µg/plate): 65 | Number of revertant colonies TA1537 ([4]; S9 Mix +, dose 6.9 µg/plate): 227 | Number of revertant colonies TA1537 ([4]; S9 Mix +, dose 21 µg/plate): 180 | Number of revertant colonies TA1537 ([4]; S9 Mix +, dose 62 µg/plate): 102 | Number of revertant colonies TA1537 ([4]; S9 Mix +, dose 185 µg/plate): 85 | Number of revertant colonies TA1537 ([4]; S9 Mix +, dose 556 µg/plate): 0 | Number of revertant colonies TA1537 ([4]; S9 Mix +, dose 1667 µg/plate): 0 | Number of revertant colonies TA1537 ([4]; S9 Mix +, dose 5000 µg/plate): 0 | Number of revertant colonies TA1537 ([4]; S9 Mix -, dose 2.3 µg/plate): 17 | Number of revertant colonies TA1537 ([4]; S9 Mix -, dose 6.9 µg/plate): 20 | Number of revertant colonies TA1537 ([4]; S9 Mix -, dose 21 µg/plate): 16 | Number of revertant colonies TA1537 ([4]; S9 Mix -, dose 62 µg/plate): 11 | Number of revertant colonies TA1537 ([4]; S9 Mix -, dose 185 µg/plate): 3 | Number of revertant colonies TA1537 ([4]; S9 Mix -, dose 556 µg/plate): 0 | Number of revertant colonies TA1537 ([4]; S9 Mix -, dose 1667 µg/plate): 0 | Number of revertant colonies TA1537 ([4]; S9 Mix -, dose 5000 µg/plate): 0 | potential to induce reverse mutations ([4]; TA1537 with S9 mix): showed potential to induce reverse mutations | potential to induce reverse mutations ([4]; TA1537 without S9 mix): showed potential to induce reverse mutations

— patent US20230210831A1, “CHRONIC KIDNEY DISEASE TREATMENT OR PREVENTION METHOD” (Japan Tobacco Inc., priority 2019, published 2023)
